Test results from ChEMBL document CHEMBL1127868, “Synthesis and In Vitro evaluation of fused ring heterocyle-containing angiotensin II antagonists” (Bioorg Med Chem Lett, 1994).

target: T1, Type-1 angiotensin II receptor (Oryctolagus cuniculus, UniProt P34976); assay: pA2 value determined in vitro against angiotensin II receptor, type 1 using rabbit aortic rings; conditions: read-out: pA2 (converted)
T1 sequence (P34976 whole entry): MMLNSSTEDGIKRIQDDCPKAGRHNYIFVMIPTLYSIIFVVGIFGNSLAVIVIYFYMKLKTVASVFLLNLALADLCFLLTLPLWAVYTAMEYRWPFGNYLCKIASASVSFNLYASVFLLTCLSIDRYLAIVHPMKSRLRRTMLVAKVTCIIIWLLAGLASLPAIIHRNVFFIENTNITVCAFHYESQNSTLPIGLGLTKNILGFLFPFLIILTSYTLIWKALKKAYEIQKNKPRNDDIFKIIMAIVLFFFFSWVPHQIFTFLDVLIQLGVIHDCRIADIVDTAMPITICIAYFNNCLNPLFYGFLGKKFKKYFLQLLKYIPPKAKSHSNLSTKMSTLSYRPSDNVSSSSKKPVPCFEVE

Compound | Kb [nM]
CCc1nc(NCc2ccc(-c3ccccc3-c3nn[nH]n3)cc2)c2cc(OC)ccc2n1 | 2.63
CCCN(Cc1ccc(-c2ccccc2-c2nn[nH]n2)cc1)c1ncccc1C(=O)O | 0.0501
CCCN(Cc1ccc(-c2ccccc2-c2nnn[nH]2)cc1)c1ncnc2cccc(C(=O)OC)c12 | > 100
CCCCN(Cc1ccc(-c2ccccc2-c2nnn[nH]2)cc1)c1ncnc2nc[nH]c12 | 6.76
CCCN(Cc1ccc(-c2ccccc2-c2nnn[nH]2)cc1)c1ncnc2[nH]cnc12 | 12
CCCN(Cc1ccc(-c2ccccc2-c2nnn[nH]2)cc1)c1ncnc2c1ncn2CC(=O)O | 7.24
CCCCN(Cc1ccc(-c2ccccc2-c2nnn[nH]2)cc1)c1ncnc2nccnc12 | 115
CCCN(Cc1ccc(-c2ccccc2-c2nn[nH]n2)cc1)c1ncnc2ncn(C)c12 | 933
CCc1nc(NCc2ccc(-c3ccccc3-c3nn[nH]n3)cc2)c2ccccc2n1 | 2.95
CCCN(Cc1ccc(-c2ccccc2-c2nn[nH]n2)cc1)c1[nH]cnc2nncc1-2 | 339
CCCN(Cc1ccc(-c2ccccc2-c2nn[nH]n2)cc1)c1ncnc2cccc(OC)c12 | > 100
CCCCN(Cc1ccc(-c2ccccc2-c2nnn[nH]2)cc1)c1ncnc2c1nc(C(N)=O)n2C | > 100
CCCN(Cc1ccc(-c2ccccc2-c2nn[nH]n2)cc1)c1ncnc2c1ncn2Cc1ccccc1 | 151
CCc1nc(NCc2ccc(-c3ccccc3-c3nnn[nH]3)cc2)c2ncn(C)c2n1 | 5.13
CCc1nc(N(C)Cc2ccc(-c3ccccc3-c3nn[nH]n3)cc2)c2cc(OC)ccc2n1 | 47.9
CCc1nc(NCc2ccc(-c3ccccc3-c3nn[nH]n3)cc2)c2c[nH]nc2n1 | 138
CCc1nc(NCc2ccc(-c3ccccc3-c3nn[nH]n3)cc2)c2cc(C(=O)O)ccc2n1 | 2.57
CCCCN(Cc1ccc(-c2ccccc2-c2nnn[nH]2)cc1)c1ncnc2cccnc12 | 776
CCCCN(Cc1ccc(-c2ccccc2-c2nnn[nH]2)cc1)c1ncnc2ccc(OC)cc12 | 47.9
CCCN(Cc1ccc(-c2ccccc2-c2nnn[nH]2)cc1)c1ncnc2ncn(CC(=O)O)c12 | 74.1
CCCCN(Cc1ccc(-c2ccccc2-c2nnn[nH]2)cc1)c1ncnc2c1nc(CC)n2C | 30.2
CCc1nc(NCc2ccc(-c3ccccc3-c3nnn[nH]3)cc2)c2c(OC)cccc2n1 | 8.51
CCCCN(Cc1ccc(-c2ccccc2-c2nnn[nH]2)cc1)c1ncnc2c1nc(-c1ccccc1)n2C | > 100
CCCCN(Cc1ccc(-c2ccccc2-c2nn[nH]n2)cc1)c1[nH]cnc2nc(C)nc1-2 | 7.76
CCCN(Cc1ccc(-c2ccccc2-c2nnn[nH]2)cc1)c1ncnc2cccc(C(=O)O)c12 | > 100

Next, values leading:

Kb [nM] | Compound
9.33 | CCCCN(Cc1ccc(-c2ccccc2-c2nn[nH]n2)cc1)c1ncnc2c1nc(C)n2C
72.4 | CCCCN(Cc1ccc(-c2ccccc2-c2nn[nH]n2)cc1)c1ncnc2c1nc(C#N)n2C
> 100 | CCCCN(Cc1ccc(-c2ccccc2-c2nn[nH]n2)cc1)c1ncnc2c1nc(S(C)(=O)=O)n2C
8.32 | CCCCN(Cc1ccc(-c2ccccc2-c2nn[nH]n2)cc1)c1ncnc2c1ncn2C
29.5 | CCCCN(Cc1ccc(-c2ccccc2-c2nn[nH]n2)cc1)c1ncnc2c1nc(O)n2C
10.7 | CCCCN(Cc1ccc(-c2ccccc2-c2nn[nH]n2)cc1)c1ncnc2c1nnn2C
87.1 | CCCCN(Cc1ccc(-c2ccccc2-c2nn[nH]n2)cc1)c1ncnc2ccc(O)cc12
97.7 | CCCN(Cc1ccc(-c2ccccc2-c2nn[nH]n2)cc1)c1ncnc2oc(C)nc12
35.5 | CCCCN(Cc1ccc(-c2ccccc2-c2nnn[nH]2)cc1)c1ncnc2cc(C(=O)O)ccc12
6.46 | CCCCN(Cc1ccc(-c2ccccc2-c2nn[nH]n2)cc1)c1ncnc2ccc(C(=O)O)nc12
107 | CCCCN(Cc1ccc(-c2ccccc2-c2nn[nH]n2)cc1)c1ncnc2ccc(C(=O)OC)cc12
0.117 | CCCN(Cc1ccc(-c2ccccc2-c2nn[nH]n2)cc1)c1ncncc1C(=O)O
9.55 | CCCCN(Cc1ccc(-c2ccccc2-c2nnn[nH]2)cc1)c1ncnc2ccc(C(=O)O)cc12
41.7 | CCCCN(Cc1ccc(-c2ccccc2-c2nn[nH]n2)cc1)c1ncnc2c1nc([S+](C)[O-])n2C (stereo not given)

tested on: Rattus norvegicus; assay: Dose (po) required to normalize blood pressure in renal artery-ligated rats; format: functional; conditions: not given

Compound | Dose [mg/kg]
CCCN(Cc1ccc(-c2ccccc2-c2nn[nH]n2)cc1)c1ncccc1C(=O)O | 0.3
